Measurements from patent US20260199323A1, “LIGAND COMPOUNDS FOR E3 UBIQUITIN LIGASE, PROTEIN DEGRADERS DEVELOPED ON BASIS OF LIGAND COMPOUNDS, AND USES THEREOF” (GLUETACS THERAPEUTICS (SHANGHAI) CO., LTD., priority 2021, published 2026).
Read-outs that look alike come from different tables or passages of the source.

Assays:
[1] = tested on: SW620; experiment: CCK-8 tumor cell proliferation, SW620; format: cell-based, Human; details: Homo sapiens, SW-620, SW620, read-out: IC50 inhibiting proliferation of tumor cells, SW620
In short: (§1)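 Authenticated cells, kept at 37 °C and 5% CO2, were given compound a day after plating; doses spanned 10 levels in 5-fold decrements from 10 μM. IC50 values come from CCK-8 viability readings.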

[2] = tested on: MM.1S; experiment: CCK-8 tumor cell proliferation, MM.1S; format: cell-based; details: Homo sapiens, MM1.S; Table 18, FAK inhibitor based; MM.1S; read-out: IC50 inhibiting proliferation of tumor cells, MM.1S
In short: as §1

[3] = tested on: CCRF-CEM; experiment: CCK-8 tumor cell proliferation, CCRF-CEM; format: cell-based, Human; details: Homo sapiens, CCRF-CEM, read-out: IC50 inhibiting proliferation of tumor cells, CCRF-CEM
In short: as §1

[4] = tested on: CAL-62; experiment: CCK-8 tumor cell proliferation, CAL-62; format: cell-based, Human; details: Homo sapiens, CAL-62, read-out: IC50 inhibiting proliferation of tumor cells, CAL-62
In short: as §1

[5] = tested on: Hep3B2.7-1; experiment: CCK-8 tumor cell proliferation, Hep3B2.7-1; format: cell-based, Human; details: Homo sapiens
Description: (§2) The tumor cells used herein were cultured in a cell culture medium listed in table 4 at 37° C. in an incubator with 5% CO2. Prior to experimentation, all cells used were correctly identified by STR profiling, and tested negative for mycoplasma through routine screenings.
(§3) IC50 values of the compounds of the present disclosure (including the compounds in Tables 1 and 3, and compounds of examples) were measured using the Meilun Cell Counting Kit-8 kit from Dalian Meilun Biotech Co., Ltd. Assay details are as follows: tumor cells were seeded in a 96-well plate at a density listed in Table 5. After 24 h, 100 μL of the inoculated cells were treated with 0.5 μL of the compounds of the present disclosure (including the compounds in Tables 1 and 3, and compounds of examples) at 10 different successively decreasing concentrations (starting at the highest concentration of 10 μM; 5-fold serial dilutions). After the cells were treated with the compounds of the present disclosure for a period of time, the cell viability detection reagent was added to the culture medium for cell viability assessment according to the instructions provided with the CCK-8 kit. […] The growth inhibition of the compounds of the present disclosure on cells was plotted by Prism Graphpad software, and the IC50 values of the compounds of the present disclosure were calculated therefrom.

[6] = tested on: Jurkat; experiment: CCK-8 tumor cell proliferation, Jurkat; format: cell-based, Human; details: Homo sapiens, Table 19, IRAK4 inhibitor based, read-out: IC50 inhibiting proliferation of tumor cells, Jurkat
In short: as §1

[7] = tested on: LNcap; experiment: CCK-8 tumor cell proliferation, LNcap; format: cell-based, Human; details: Homo sapiens; Table 19, IRAK4 inhibitor based; Lncap; read-out: IC50 inhibiting proliferation of tumor cells, Lncap
Description: as §2, §3

[8] = tested on: Kasumi-1; experiment: CCK-8 tumor cell proliferation, Kasumi-1; format: cell-based, Human; details: Homo sapiens; Table 19, IRAK4 inhibitor based; Kasumi-1; read-out: IC50 inhibiting proliferation of tumor cells, Kasumi-1
Description: as §2, §3

[9] = Table 19, IRAK4 inhibitor based
[10] = Table 19, IRAK4 inhibitor based, Hep3B2.7-1, read-out: IC50 inhibiting proliferation of tumor cells, Hep3B2.7-1

IC50 [6]	IC50 [1, 9]	IC50 [7]	IC50 [3, 9]	IC50 [4, 9]	SMILES	also measured
< 50 nM	100 to 500 nM	100 to 500 nM	< 50 nM	< 50 nM	O=C1CCC(N2C(=O)c3ccc(CN4CCC(n5cc(NC(=O)c6coc(-c7ccnc(NCC(F)(F)F)c7)n6)c(C(F)F)n5)CC4)cc3C2=O)C(=O)N1 (centres unmarked) [GT-04088, N-(3-(difluoromethyl)-1-(1-((2-(2,6-dioxopiperidin-3-yl)-1,3-dioxoisoindolin-5-yl)methyl)piperidin-4-yl)-1H-pyrazol-4-yl)-2-(2-((2,2,2-trifluoroethyl)amino)pyridin-4-yl)oxazole-4-carboxamide]	–
500 to 1000 nM	–	–	–	–	O=C1CCC(N2Cc3cc(CN4CCN(c5ccc(-n6cc(NC(=O)c7coc(-c8ccnc(NCC(F)(F)F)c8)n7)c(C(F)F)n6)cc5)CC4)ccc3C2=O)C(=O)N1 (centres unmarked) [GT-04267, N-(3-(difluoromethyl)-1-(4-(4-((2-(2,6-dioxopiperidin-3-yl)-1-oxoisoindolin-5-yl)methyl)piperazin-1-yl)phenyl)-1H-pyrazol-4-yl)-2-(2-((2,2,2-trifluoroethyl)amino)pyridin-4-yl)oxazole-4-carboxamide]	IC50 [5, 10]: 100 to 500 nM; IC50 [8]: 100 to 500 nM
500 to 1000 nM	–	–	–	–	O=C1CCC(N2Cc3c(ccc(CN4CCN(c5ccc(-n6cc(NC(=O)c7coc(-c8ccnc(NCC(F)(F)F)c8)n7)c(C(F)F)n6)cc5)CC4)c3F)C2=O)C(=O)N1 (centres unmarked) [GT-04268, N-(3-(difluoromethyl)-1-(4-(4-((2-(2,6-dioxopiperidin-3-yl)-4-fluoro-1-oxoisoindolin-5-yl)methyl)piperazin-1-yl)phenyl)-1H-pyrazol-4-yl)-2-(2-((2,2,2-trifluoroethyl)amino)pyridin-4-yl)oxazole-4-carboxamide]	IC50 [5, 10]: 500 to 1000 nM; IC50 [8]: 100 to 500 nM

Continued, compound first:

SMILES	IC50 [6]	IC50 [1, 9]	IC50 [7]	IC50 [3, 9]	IC50 [4, 9]	also measured
CNC(=O)c1ccccc1Nc1cc(Nc2cc(C)c(C3CCN(Cc4ccc5c(c4)CN(C4CCC(=O)NC4=O)C5=O)CC3)cc2OC(C)C)ncc1C(F)(F)F (centres unmarked) [GT-04078, 2-((2-((4-(1-((2-(2,6-dioxopiperidin-3-yl)-1-oxoisoindolin-5-yl)methyl)piperidin-4-yl)-2-isopropoxy-5-methylphenyl)amino)-5-(trifluoromethyl)pyridin-4-yl)amino)-N-methylbenzamide]	–	–	–	–	–	IC50 ([1]; Table 18, FAK inhibitor based): 100 to 500 nM; IC50 [2]: < 50 nM; IC50 ([3]; Table 18, FAK inhibitor based): < 50 nM; IC50 ([4]; Table 18, FAK inhibitor based): < 50 nM; IC50 ([5]; Table 18, FAK inhibitor based, HEP3B2.7-1, read-out: IC50 inhibiting proliferation of tumor cells, HEP3B2.7-1): < 50 nM
O=C1CCC(N2Cc3c(CN4CCC(n5cc(NC(=O)c6coc(-c7ccnc(NCC8CC8)c7)n6)c(C(F)F)n5)CC4)cccc3C2=O)C(=O)N1 (centres unmarked) [GT-04173, 2-(2-((cyclopropylmethyl)amino)pyridin-4-yl)-N-(3-(difluoromethyl)-1-(1-((2-(2,6-dioxopiperidin-3-yl)-1-oxoisoindolin-4-yl)methyl)piperidin-4-yl)-1H-pyrazol-4-yl)oxazole-4-carboxamide]	500 to 1000 nM	1000 to 5000 nM	100 to 500 nM	1000 to 5000 nM	1000 to 5000 nM	–
O=C1CCC(N2C(=O)c3ccc(CN4CCC(n5cc(NC(=O)c6coc(-c7ccnc(NCC8CC8)c7)n6)c(C(F)F)n5)CC4)cc3C2=O)C(=O)N1 (centres unmarked) [GT-04174, 2-(2-((cyclopropylmethyl)amino)pyridin-4-yl)-N-(3-(difluoromethyl)-1-(1-((2-(2,6-dioxopiperidin-3-yl)-1,3-dioxoisoindolin-5-yl)methyl)piperidin-4-yl)-1H-pyrazol-4-yl)oxazole-4-carboxamide]	50 to 100 nM	100 to 500 nM	500 to 1000 nM	< 50 nM	< 50 nM	–
CC(C)(O)c1cc2nc(C3CCN(Cc4cc5c(cc4F)C(=O)N(C4CCC(=O)NC4=O)C5)CC3)sc2cc1NC(=O)c1cccc(C(F)(F)F)n1 (centres unmarked) [GT-04506, N-(2-(1-((2-(2,6-dioxopiperidin-3-yl)-6-fluoro-1-oxoisoindolin-5-yl)methyl)piperidin-4-yl)-5-(2-hydroxypropan-2-yl)benzo[d]thiazol-6-yl)-6-(trifluoromethyl)picolinamide]	50 to 100 nM	–	100 to 500 nM	100 to 500 nM	–	–
